Reference: patent publication US6517812B1, “Inhibition of psychostimulant-induced and nicotine-induced craving” (The General Hospital Corporation, priority 1997, dated 2003)
Values joined by “and” are separate entries in the source; they are usually repeats but may differ in a detail not shown here. Equal values may be shown once. Read-outs that look alike come from different tables or passages of the source.

Columns and labels:
Assay type in all cases: in vivo
[1] = Plasma cocaine levels after IV infusion (liquid chromatography with photodiode array detection); details: human, 0.6 mg/kg IV; for Cmax: plasma, iv
Procedure: Sequential 4 ml venous blood samples were collected immediately before and at 1, 3, 5, 10, 15, 30, 60, 90 and 120 minutes following each infusion. The 120 minute sample for the first infusion was also the pre-infusion sample for the second infusion.
Plasma/Urine Levels: Cocaine quantitative assays were performed by the MGH Clinical Chemistry Laboratory using a liquid chromatography with photodiode array detection method they developed (Puopolo et al., 1992, Clin. Chem. 38:1838-1842), with minor modifications (flow rate increased from 2.0 to 2.6 ml/minute and LCPCN column length increased from 150 to 250 mm). Intra-assay imprecision at […] for cocaine is 5.1%, 5.7% and 6.6% respectively.

[2] = system: human brain, limbic and paralimbic regions; assay: BOLD fMRI of brain activation after cocaine infusion (KS maps, pre vs post infusion); details: voxels p<10^−5, four subjects
Procedure: Scanning was performed with a quadrature head-coil and a 1.5 T MR scanner (General Electric) modified for echo-planar imaging (Advanced NMR). Imaging involved the following protocol. First, a sagittal localizer scan [conventional T1-weighted spoiled gradient refocused gradient echo (SPGR) sequence; through-plane resolution=2.8 mm; 60 slices] was performed to orient, for subsequent scans, 15 contiguous axial slices covering the whole brain. This scan was also used as the structural scan for Talairach transformation. Next, an automated shimming technique was used to optimize B0 homogeneity (Reese et al., 1995, J. Magn. Reson. Imaging 5:739-745). This was followed by a SPGR T1-weighted flow-compensated scan (resolution=1.6 mm×1.6 mm×8 mm) scan, which was primarily obtained to aid Talairach transformation during data analysis (see Breiter et al., 1996, Arch. Gen. Psychiatry 53:595-606). The fourth scan was a T1-weighted echo planar inversion recovery sequence (TI=1200 msec, in-plane resolution=1.57 mm) for high-resolution structural images to be used in preliminary statistical maps, but not with Talairach transformed or averaged maps. Finally, BOLD imaging was performed using an asymmetric spin echo T2*-weighted sequence (TR=8000, TE=50, 180 refocusing pulse offset by −25 ms; FOV=40×20 cm; in-plane resolution=3.125 mm; through-plane resolution=8 mm; 15 contiguous axial slices covering the whole brain) to measure ‘activation’ (local changes in blood flow and oxygenation) (Kwong et al., 1992, Proc. Natl. Acad. Sci. 89:5675-5679; Ogawa et al., 1992, Proc. Natl. Acad. Sci. 89:5957-5955; Bandettini et al., 1992, Magn. Reson. Med. 25:390-397). Images were acquired interleaved for 136 time points for each infusion.
Motion correction: To reduce head motion, each subject was positioned using a bitebar, and echo-planar data was motion corrected using an algorithm (Jiang et al., 1995, Hun. Brain Mapp. 3:1-12) adapted from Woods et al (1992), and described elsewhere (Breiter et al., 1996, Arch. Gen. Psychiatry 53:595-606). […] After motion correction, time-series data were inspected to assure that no data set evidenced residual motion in the form of cortical rim or ventricular artifacts >1 voxel.
Talairach transformation: Each individual's set of infusion related functional images, along with the associated conventional structural scans, were transformed into Talairach space (Talairach et al., 1988, New York: Thieme Medical Publishers; Breiter et al., 1996, Arch. Gen. Psychiatry 53:595-606; Breiter et al., 1996, Neuron 17:875-887) and resliced in the coronal orientation over 57 slices with isotropic voxel dimensions (x,y,z=3.125 mm). […]

[3] = system: cocaine-dependent volunteers; assay: Behavioral ratings of rush, high, low and craving (integer scale 0 to 3) after cocaine infusion; details: human
From the text: During FAIR and BOLD infusion scans, behavioral measures of rush, high, low, and craving were obtained in a continuous sequence each minute. Thus, over each 15 second epoch, one rating scale would be projected for the subject's response. Given four scales, it took one minute to cycle through the complete set of scales. Timing of scan initiation, infusion onset and offset, and scan completion were linked with ongoing behavioral reports to allow subsequent correlational analysis between behavioral ratings and fMRI acquisitions. Behavioral responses were acquired with a four-button button-press which had been adapted to the magnet environment by construction with non-magnetic components and filtering of its output at the Faraday shield.
To obtain meaningful behavioral ratings during scanning, subjects were trained beforehand. The day before scanning, subjects were interviewed in depth by one of two board-certified psychiatrists to fully describe their experience of cocaine intake. These descriptions were then categorized by the psychiatrist and subject into four components: the rush, high, low, and craving which were to be rated on an integer scale of 0 (none) to 3 (maximum). The individualized conventions for description of subjective responses were then tested, during the unblinded pre-infusion with 0.2 mg/kg cocaine, on a portable computer with a program simulating that used in the MRI.
Of the four behavioral measures, only craving was defined operationally in terms of the action the individual wanted to engage in (to get more cocaine). The other three behavioral measures, rush, high, and low, were defined in terms of subjective feelings which were not necessarily associated with a behavioral output, or associated with the planning and implementation of physical activity. Thus, by definition, only craving was defined as a motivational state. In general, rush experiences involved physical sensations of elevated heart rate and sweating, along with internal feelings variously characterized as ‘speeding’ sensations and sensations of ‘being out-of-control’. In contrast, the high experience was generally associated with feelings of self-confidence, well-being, and sociability. The low experience encompassed all negative subjective feelings potentially associated with cocaine use such as anxiety, paranoia, dysphoria, or anhedonia; the majority of subjects in this study discussed the low in terms of dysphoric affect distinct from a diminishment in the high experience.
Behavioral Data: The integer output for each behavioral rating was segregated by category of rush, high, low, and craving. For the group data in FIG. 2, the 18 measures for each behavioral category obtained during the 18 minute BOLD infusion scan were averaged for the 9 subjects with both interpretable behavioral data and fMRI data. This averaged data was then utilized in the correlational analysis of the cocaine fMRI data.

rat brain regions = assay: CBV-weighted fMRI with MION contrast in rat after IV cocaine
[4] = 0.6 mg/kg IV blinded, scale 0-3
[5] = 0.6 mg/kg IV, post-infusion, 0.6 mg/kg
[6] = rat frontal cortex, cocaine 0.5 mg/kg IV

COC(=O)[C@H]1[C@@H](OC(=O)c2ccccc2)C[C@@H]2CC[C@H]1N2C [cocaine]
time to peak cocaine plasma concentration, mean±SD ([1]; 4 subjects with re-test experiments): 6.0 ± 2.9 min | time to peak cocaine plasma concentration, mean±SD ([1]; initial series of experiments, 0.6 mg/kg): 7.6 ± 4.2 min and ~7 min | Cmax ([1]; 0.6 mg/kg, n=7, range over subjects, read-out: Peak plasma cocaine levels (Cmax), range): 197 to 893 ng/mL | Cmax ([1]; 0.6 mg/kg, n=7 subjects with complete data, read-out: Peak plasma cocaine levels (Cmax), mean): 389 ± 233 ng/mL | percent signal change, NAc/SCC Left ([2]; retest condition): 2.3% | percent signal change, NAc/SCC Right ([2]; retest condition): 2.1% | percent signal change, NAc/SCC Left ([2]; test condition): 3.8% | percent signal change, NAc/SCC Right ([2]; test condition): 2.4% | craving rating ([3]; 0.2 mg/kg IV, unblinded): 1.0±1.3 | high rating ([3]; 0.2 mg/kg IV, unblinded): 1.7±1.2 | low rating ([3]; 0.2 mg/kg IV, unblinded): 0.8±0.8 | rush rating ([3]; 0.2 mg/kg IV, unblinded): 1.2±1.1 | peak craving rating [3, 4]: 1.3±0.9 | peak high rating [3, 4]: 2.1±0.8 | peak low rating [3, 4]: 0.9±0.8 | peak rush rating (mean±SD) [3, 4]: 2.2±1.1 | time of peak high ([3]; 0.6 mg/kg IV, post-infusion): 3 min | time of peak rush ([3]; 0.6 mg/kg IV, post-infusion): 3 min | time of peak craving [3, 5]: 12 min and 11 to 12 min | time of peak low [3, 5]: 11 min and 11 to 12 min | craving rating ([3]; retest infusion, four subjects): 1.0±1.2 | high rating ([3]; retest infusion, four subjects): 2.3±0.5 | low rating ([3]; retest infusion, four subjects): 1.0±0.8 | rush rating ([3]; retest infusion, four subjects): 1.8±1.0 | maximum increase of cortical CBV over baseline (rat brain regions; [6]): 32% | time to peak CBV (rat brain regions; [6]): approximately 3.5 minutes | time of return of CBV to baseline (rat brain regions; rat frontal cortex, cocaine 0.5 mg/kg IV, post infusion): ≤ 25 min | time to maximum CBV change, all cortical and subcortical regions (rat brain regions; rat, after initiation of 0.5 mg/kg cocaine infusion): 3 to 6 min | increase in CBV at peak, agranular lateral frontal neocortex (rat brain regions; rat, cocaine 0.5 mg/kg IV): ~30% | increase in CBV at peak, agranular medial frontal neocortex (rat brain regions; rat, cocaine 0.5 mg/kg IV): approximately 40% | average CBV response of four subcortical regions relative to five frontal and parietal cortical regions (rat brain regions; rat, cocaine 0.5 mg/kg IV, p<0.005): 45%
